In PubChem BioAssay AID977605 (Broad Institute, 2014):
The source made the active and inactive calls.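 Rule for the calls: active = fitted curve reaches 40% activation below the top valid tested dose, in every test run; inconclusive = test runs disagree on the call; inactive = the rest, including effects opposite to the expected direction.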

Assay: E-selectin inducers in HUVECs, dose response, imaging, HUVEC, cherry-picked samples (AID 977605);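 note: signal is the share of imaged cells scored positive for E-selectin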
Settings: HUVEC E-selectin immunostaining, at 19.5 µM (top of the series), percent of TNF-alpha response over vehicle
In the case of `C[C@@H]1CN([C@H](C)CO)C(=O)c2cc(NS(=O)(=O)c3ccccc3)ccc2O[C@@H]1CN(C)C(=O)NC1CCCCC1`, the activation is reported as -0.139% (inactive).
In the case of `CC1CC(=O)Nc2ccccc2N1S(=O)(=O)c1cccs1` (stereo not given), the activation is reported as -0.177% (inactive).
In the case of `C[C@@H]1CN([C@@H](C)CO)C(=O)c2cc(NS(=O)(=O)c3cccs3)ccc2O[C@@H]1CN(C)S(C)(=O)=O`, the activation is reported as -0.005% (inactive).
For `COc1cccc(C(=O)Nc2cc(C)c3c(=O)oc4ccccc4c3n2)c1`, the activation was 2.1% (inactive).
With `Cc1cccc(NS(=O)(=O)c2csc(C(N)=O)c2)c1C` the activation was 0.111% (inactive).
With `N#CC1(NC(=O)CN2C(=O)c3ccccc3C2=O)CCCCC1` the activation was 16.1% (inactive).
In the case of `C[C@@H]1CN([C@H](C)CO)C(=O)c2cc(NC(=O)Cn3cnnn3)ccc2O[C@@H]1CN(C)Cc1ccc(Oc2ccccc2)cc1`, the activation is reported as -0.117% (inactive).
In the case of `O=C(COC(=O)c1ccccc1NCCO)NNC(=O)c1cccs1`, the activation is reported as -0.279% (inactive).
For `CC1=NC(C)(C)Cc2c(C)cccc21`, the activation was -0.148% (inactive).
In the case of `C[C@H]1CN([C@@H](C)CO)C(=O)c2cc(Br)cnc2O[C@H]1CN(C)Cc1cccc(F)c1`, the activation is reported as -0.038% (inactive).
In the case of `COc1ccc(NC(=O)CCCn2c(=S)[nH]c3ccccc3c2=O)cc1`, the activation is reported as 1.61% (inactive).
In the case of `C[C@H](CO)N1C[C@H](C)[C@@H](CN(C)C)Oc2ccc(NC(=O)CCCN(C)C)cc2CC1=O`, the activation is reported as -0.172% (inactive).
With `COc1ccc(S(=O)(=O)N(C)C[C@@H]2Oc3ccc(NC(=O)Nc4c(C)noc4C)cc3C(=O)N([C@H](C)CO)C[C@@H]2C)cc1` the activation was -0.123% (inactive).
For `C[C@H](CO)N1C[C@H](C)[C@H](CN(C)C(=O)c2ccc3c(c2)OCO3)Oc2cc(-c3ccccc3)ccc2S1(=O)=O`, the activation was -0.242% (inactive).
With `C[C@H]1CN([C@@H](C)CO)C(=O)c2cc(C#Cc3cccc(F)c3)cnc2O[C@@H]1CN(C)C(=O)C1CC1` the activation was -0.134% (inactive).
With `C[C@H](CO)N1C[C@H](C)[C@H](CN(C)Cc2ccc3c(c2)OCO3)Oc2ccc(NC(=O)Cc3cn(C)c4ccccc34)cc2C1=O` the activation was 0.14% (inactive).
For `O=S(=O)(Nc1cccc(Oc2cnccn2)c1)c1ccc(F)cc1`, the activation was 0.221% (inactive).
For `COc1ccc(S(=O)(=O)Nc2ccc3c(c2)C(=O)N([C@H](C)CO)C[C@@H](C)[C@@H](CN(C)Cc2ccc(Cl)c(Cl)c2)O3)cc1`, the activation was -0.147% (inactive).
In the case of `C[C@H](CO)N1C[C@H](C)[C@H](CN(C)Cc2ccc(Cl)c(Cl)c2)Oc2ccc(NC(=O)Nc3ccc4c(c3)OCO4)cc2CC1=O`, the activation is reported as -0.197% (inactive).
For `COC(=O)c1sc2nc(SCC(=O)N(C)c3ccccc3)n(N)c(=O)c2c1C`, the activation was 1.12% (inactive).
For `C[C@H](CO)N1C[C@H](C)[C@H](CN(C)Cc2ccc(Oc3ccccc3)cc2)Oc2c(NC(=O)C3CCOCC3)cccc2C1=O`, the activation was 6.04% (inactive).
In the case of `CC(C)NC(=O)Nc1ccc2c(c1)C(=O)N([C@@H](C)CO)C[C@@H](C)[C@H](CN(C)Cc1ccc(C(=O)O)cc1)O2`, the activation is reported as -0.098% (inactive).
For `O=S(=O)(Nc1cccc(S(=O)(=O)N2CCCC2)c1)c1cccs1`, the activation was 2.79% (inactive).

Same assay, conditions: HUVEC E-selectin immunostaining, at 21 µM (top of the series), percent of TNF-alpha response over vehicle
With `COc1ccc(S(=O)(=O)Nc2cccc3c2O[C@H](CN(C)C(=O)Nc2c(C)noc2C)[C@@H](C)CN([C@H](C)CO)C3=O)cc1` the activation was -0.117% (inactive).
In the case of `COc1ccc(S(=O)(=O)N(C)C[C@H]2Oc3ccc(NC(=O)Nc4ccc5c(c4)OCO5)cc3CC(=O)N([C@H](C)CO)C[C@H]2C)cc1`, the activation is reported as 0.257% (inactive).
With `COc1ccc(CN(C)C[C@H]2Oc3ccc(NC(=O)Nc4c(C)noc4C)cc3C(=O)N([C@@H](C)CO)C[C@H]2C)cc1` the activation was 0.014% (inactive).
For `C[C@H](CO)N1C[C@H](C)[C@H](CN(C)Cc2ccncc2)Oc2ccc(NS(C)(=O)=O)cc2CC1=O`, the activation was 0.077% (inactive).
With `COc1ccc(CN(C)C[C@@H]2Oc3c(NC(=O)c4cnccn4)cccc3C(=O)N([C@@H](C)CO)C[C@H]2C)cc1` the activation was -0.033% (inactive).
For `C[C@H](NC(=O)C[C@H]1CC[C@H]2[C@H](COc3ccc(NS(=O)(=O)c4ccc(Cl)cc4)cc3C(=O)N2C)O1)c1ccccc1`, the activation was 0.192% (inactive).
For `C[C@@H]1CN([C@H](C)CO)C(=O)Cc2cc(NC(=O)Cc3cn(C)c4ccccc34)ccc2O[C@H]1CN(C)Cc1ccc(C(F)(F)F)cc1`, the activation was 14% (inactive).
In the case of `COc1ccc(S(=O)(=O)N(C)C[C@H]2Oc3ccc(NC(=O)c4ccncc4)cc3C(=O)N([C@H](C)CO)C[C@H]2C)cc1`, the activation is reported as 4.32% (inactive).
With `C[C@@H]1CN([C@H](C)CO)C(=O)Cc2cc(NC(=O)Nc3ccc(C(F)(F)F)cc3)ccc2O[C@H]1CN(C)Cc1ccc(Oc2ccccc2)cc1` the activation was -0.245% (inactive).
For `C[C@@H]1CN([C@@H](C)CO)C(=O)c2cccc(NC(=O)c3ccncc3)c2O[C@H]1CN(C)C(=O)Nc1cccc2ccccc12`, the activation was 1.89% (inactive).
In the case of `CC(C)NC(=O)Nc1cccc2c1O[C@H](CN(C)Cc1ccncc1)[C@@H](C)CN([C@H](C)CO)C2=O`, the activation is reported as 0.115% (inactive).
For `C[C@@H]1CN([C@H](C)CO)C(=O)c2cc(NS(=O)(=O)c3cn(C)cn3)ccc2O[C@@H]1CN(C)C(=O)Nc1ccc2c(c1)OCO2`, the activation was -0.098% (inactive).
